Assay results from patent publication US12714688B2, “Margaric acid decreases PIEZ02-mediated pain” (The United States of America, as represented by The …, priority 2020, dated 2026).
“Also recorded” adds a separate entry of the source.

Key:
Piezo2 V16 = experiment: Whole-cell patch-clamp of N2A^Piezo1−/− cells transfected with Piezo2 V16; details: 300 μM; 18 h
mice [1] = experiment: Von Frey test, repeated injury model (daily hind paw injection); format: in vivo, mouse
Method: (§1) Mice behavior: MA solution: MA was prepared in sterile Dulbecco's phosphate buffered saline, with 70 g/L fatty acid free bovine serum albumin (BSA; Sigma), and MA to a final concentration of 5 mM. The solution was filtered to avoid undissolved materials.
(§2) Subjects: For the experiment 8-12 weeks old male and female C57B16/J mice (N=12; control n=6; male=3, female=3) MA (n=6; male=3, female=3) per experiment were used. Mice were housed under a 12 hr light dark cycle and granted access to food and water ad libitum.
Injections were given as follows: Mouse is restrained by their tail, foot, and over shoulders scruff. The compound is delivered using a 3/10 cc insulin syringe into the plantar surface of the back foot of each mouse. The beveled needle is inserted at a 35-40° angle and 20-50 μl of the compound is injected subcutaneously. […]
(§3) Mechanical threshold (Von Frey test): Punctate mechanical allodynia was measured using Von Frey monofilaments (Stoelting, Inc.) in varying grams of force (0.008-1 g). Animals were placed in small enclosures over a wire mesh and the plantar of the hind paw was poked with a filament and responses were recorded. Withdrawal responses were recorded when the animal lifted, shook, or licked the paw in response to stimulus presentation. […]

mouse DRG neurons [2] = experiment: Electrical excitability of mouse DRG neurons (voltage-gated currents, membrane potential, current injection); format: cell-based
mouse DRG neurons [3] = experiment: Current-clamp recording of action potentials elicited by mechanical stimuli in mouse DRG neurons; format: cell-based
Description: Subsequent sweeps had increments of 1 μm.

mice [4] = experiment: Von Frey test after acute inflammation by topical AITC; format: in vivo, mouse; details: MA treatment for 7 days, then AITC
Method: as §1, §2
Treatment: Animals were put in two groups (control and MA) and given injections in the plantar of the left hind paw for 7 days prior behavioral assessment. Injections were given as follows: Mouse is restrained by their tail, foot, and over shoulders scruff. […]
as §3

rat DRG neurons = experiment: Current-clamp recording of action potentials elicited by mechanical stimuli in rat DRG neurons; details: 300 μM
[5] = tested on: PIEZO2-PIEZO1 beam chimera; experiment: Whole-cell patch-clamp of N2A^Piezo1−/− cells transfected with Piezo2-Piezo1 beam chimera
[6] = tested on: mechano-activated currents of rat DRG neurons; experiment: Whole-cell patch-clamp of mechano-activated currents in rat DRG neurons; details: 300 μM for 18 h
Piezo2 V14 = experiment: Whole-cell patch-clamp of N2A^Piezo1−/− cells transfected with Piezo2 V14; details: 300 μM; 18 h
mouse PIEZO2 [7] = molecular target: mouse PIEZO2 (Mus musculus, UniProt Q8CD54); experiment: Whole-cell patch-clamp with mechanical indentation of N2A^Piezo1−/− cells transfected with Piezo2 variant 2 (V2); details: for IC50: IC50 of inhibition of PIEZO2 currents, mean±SEM
Chain of mouse PIEZO2 (Mus musculus, UniProt Q8CD54) (Q8CD54 whole entry): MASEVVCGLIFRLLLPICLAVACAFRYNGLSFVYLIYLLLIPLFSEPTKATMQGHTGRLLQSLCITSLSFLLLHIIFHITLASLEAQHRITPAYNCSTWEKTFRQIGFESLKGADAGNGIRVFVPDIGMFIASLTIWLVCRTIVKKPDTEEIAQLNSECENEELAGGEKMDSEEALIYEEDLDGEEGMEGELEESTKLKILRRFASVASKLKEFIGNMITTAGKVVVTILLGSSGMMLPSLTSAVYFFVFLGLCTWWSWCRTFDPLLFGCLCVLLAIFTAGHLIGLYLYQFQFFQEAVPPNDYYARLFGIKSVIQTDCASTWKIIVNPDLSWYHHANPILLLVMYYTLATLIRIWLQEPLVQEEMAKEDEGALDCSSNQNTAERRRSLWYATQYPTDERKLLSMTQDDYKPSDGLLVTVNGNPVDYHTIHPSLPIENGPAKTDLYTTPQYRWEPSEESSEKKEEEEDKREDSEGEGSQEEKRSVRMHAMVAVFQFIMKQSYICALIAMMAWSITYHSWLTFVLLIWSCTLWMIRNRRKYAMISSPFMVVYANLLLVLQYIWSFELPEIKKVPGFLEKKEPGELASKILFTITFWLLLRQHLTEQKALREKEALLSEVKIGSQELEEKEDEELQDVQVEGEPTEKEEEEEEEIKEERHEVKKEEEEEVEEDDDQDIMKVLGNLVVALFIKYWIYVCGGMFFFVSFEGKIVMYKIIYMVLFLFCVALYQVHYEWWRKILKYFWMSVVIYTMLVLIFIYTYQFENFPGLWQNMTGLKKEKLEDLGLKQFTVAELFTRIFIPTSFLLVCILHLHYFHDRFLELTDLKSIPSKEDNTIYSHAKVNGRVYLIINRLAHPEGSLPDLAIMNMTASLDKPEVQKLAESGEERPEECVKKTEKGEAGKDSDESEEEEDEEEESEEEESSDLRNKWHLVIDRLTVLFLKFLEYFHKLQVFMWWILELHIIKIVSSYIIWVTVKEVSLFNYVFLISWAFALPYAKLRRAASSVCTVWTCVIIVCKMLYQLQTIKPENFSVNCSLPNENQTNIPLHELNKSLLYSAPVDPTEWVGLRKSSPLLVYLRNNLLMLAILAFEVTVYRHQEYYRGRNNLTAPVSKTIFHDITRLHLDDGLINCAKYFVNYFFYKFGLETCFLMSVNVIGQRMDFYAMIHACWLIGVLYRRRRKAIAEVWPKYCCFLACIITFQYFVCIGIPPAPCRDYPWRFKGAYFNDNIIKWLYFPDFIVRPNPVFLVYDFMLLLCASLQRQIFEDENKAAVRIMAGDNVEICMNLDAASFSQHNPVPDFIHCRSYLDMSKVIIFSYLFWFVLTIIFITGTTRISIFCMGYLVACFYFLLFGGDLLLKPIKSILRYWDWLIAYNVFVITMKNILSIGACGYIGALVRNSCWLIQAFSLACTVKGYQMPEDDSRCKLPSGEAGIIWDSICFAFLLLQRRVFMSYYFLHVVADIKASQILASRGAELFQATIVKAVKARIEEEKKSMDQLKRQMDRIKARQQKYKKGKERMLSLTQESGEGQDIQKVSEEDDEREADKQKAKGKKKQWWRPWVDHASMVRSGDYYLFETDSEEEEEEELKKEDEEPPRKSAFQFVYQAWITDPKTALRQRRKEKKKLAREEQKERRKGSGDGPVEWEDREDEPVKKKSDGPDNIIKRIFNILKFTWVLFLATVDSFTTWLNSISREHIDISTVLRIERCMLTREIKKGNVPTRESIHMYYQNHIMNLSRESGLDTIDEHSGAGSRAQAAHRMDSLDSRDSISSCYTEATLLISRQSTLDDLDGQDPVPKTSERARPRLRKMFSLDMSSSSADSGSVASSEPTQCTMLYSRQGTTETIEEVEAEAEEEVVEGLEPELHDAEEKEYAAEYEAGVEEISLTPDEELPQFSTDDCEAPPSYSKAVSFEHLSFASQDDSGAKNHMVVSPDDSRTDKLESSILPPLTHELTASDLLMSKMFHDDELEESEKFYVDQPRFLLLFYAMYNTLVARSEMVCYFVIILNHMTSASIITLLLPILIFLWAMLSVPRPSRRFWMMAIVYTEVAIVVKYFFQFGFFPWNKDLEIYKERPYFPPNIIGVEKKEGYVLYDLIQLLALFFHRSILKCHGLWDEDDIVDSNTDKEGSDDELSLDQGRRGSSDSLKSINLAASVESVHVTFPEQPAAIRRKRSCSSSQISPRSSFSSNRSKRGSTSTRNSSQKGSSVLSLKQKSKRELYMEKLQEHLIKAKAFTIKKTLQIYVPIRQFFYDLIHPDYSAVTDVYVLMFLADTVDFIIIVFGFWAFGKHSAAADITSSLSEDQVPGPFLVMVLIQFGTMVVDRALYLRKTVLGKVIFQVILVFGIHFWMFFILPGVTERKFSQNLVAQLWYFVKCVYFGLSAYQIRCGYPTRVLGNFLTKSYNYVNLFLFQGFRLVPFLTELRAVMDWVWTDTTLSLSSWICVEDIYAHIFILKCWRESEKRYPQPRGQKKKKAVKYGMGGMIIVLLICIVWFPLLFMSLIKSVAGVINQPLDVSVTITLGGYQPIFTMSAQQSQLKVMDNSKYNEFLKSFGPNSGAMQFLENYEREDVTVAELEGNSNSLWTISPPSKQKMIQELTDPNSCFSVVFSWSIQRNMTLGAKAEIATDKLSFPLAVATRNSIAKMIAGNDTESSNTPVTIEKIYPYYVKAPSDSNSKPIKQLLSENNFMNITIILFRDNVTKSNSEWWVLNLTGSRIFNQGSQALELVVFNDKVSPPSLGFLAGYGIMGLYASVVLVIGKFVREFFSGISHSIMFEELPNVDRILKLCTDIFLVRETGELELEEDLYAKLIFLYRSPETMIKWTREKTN

mouse PIEZO2 [8] = experiment: as above; details: from IC50 values
PIEZO1 = PIEZO1 (Mus musculus, UniProt E2JF22); experiment: Whole-cell patch-clamp with mechanical indentation of N2A cells expressing endogenous Piezo1; details: IC50 of inhibition of PIEZO1 currents, mean±SEM

effect on PIEZO2 inactivation (mouse PIEZO2 [7]; 50 μM each day for 4 days): without altering PIEZO2 inactivation
effect on displacement threshold (mouse PIEZO2 [7]; 50 μM each day for 4 days): increases the displacement threshold
decrease of PIEZO2 currents (mouse PIEZO2 [7]; 50 μM each day over four days): 65%
IC50 (mouse PIEZO2 [7]; MA 1-600 μM overnight (18 h), normalized current densities at maximum displacement, Boltzmann fit): 191 ± 14.7 µM
IC50 (mouse PIEZO2 [7]; latrunculin A-treated cells, MA 1-600 μM 18 h plus latrunculin A 1 μM for 1 h): 75.4 ± 13.3 µM
MA concentration required to decrease PIEZO2 currents (mouse PIEZO2 [7]; overnight supplementation): higher than 100 μM
increase of displacement threshold required to elicit PIEZO2 currents vs control cells (mouse PIEZO2 [7]; overnight supplementation): three fold
IC50 (PIEZO1; MA 1-300 μM 18 h): 28.3 ± 3.4 µM
IC50 (PIEZO1; latrunculin A-treated cells, MA 1-300 μM 18 h plus latrunculin A): 25.6 µM
Structure (SMILES): CCCCCCCCCCCCCCCCC(=O)O [MA, heptadecanoic acid]
effect on activity of Piezo2 V16 (Piezo2 V16): inhibited the activity
hypersensitivity to punctate touch (tactile allodynia) (mice [1]; MA 5 mM injected daily into hind paw for 7 days): ameliorates hypersensitivity to touch after injury; also recorded: selectively decreases tactile allodynia; also recorded: protects against tactile allodynia; also recorded: do not develop; also recorded: failed to develop this type of heightened withdrawal response
baseline touch responses (mice [1]; acute sub-dermal injection): had no effect on baseline touch responses
electrical excitability (mouse DRG neurons [2]; 300 μM): does not alter mouse DRG neurons electrical excitability; also recorded: does not alter DRG neuronal electrical excitability
action potential firing elicited by current injection (mouse DRG neurons [2]; 300 μM vs control): no difference in action potential firing elicited by current injection
amplitudes of voltage-activated inward Na+ and outward K+ currents (mouse DRG neurons [2]; 300 μM vs control): no significant differences
membrane potential (mouse DRG neurons [2]; 300 μM, whole-cell configuration): did not alter membrane potential
action potential firing elicited by mechanical stimuli (mouse DRG neurons [3]; 300 μM): reduces neuronal action potential firing elicited by mechanical stimuli; also recorded: decreases action potentials elicited by mechanical stimuli; also recorded: specifically decrease action potential firing evoked by mechanical stimulation
indentation steps eliciting action potentials (mouse DRG neurons [3]; 300 μM, control 7-12 μm): 12 μm
action potential generation (mouse DRG neurons [3]; 300 μM, indentation steps smaller than 12 μm): completely inhibits action potential generation
mechanical threshold required to fire action potentials (mouse DRG neurons [3]; MA supplementation): increases the mechanical threshold required for DRG neurons to fire action potentials
action potentials evoked by 1 Hz mechanical stimulus trains (mouse DRG neurons [3]; MA-enriched neurons vs control): evoked less action potentials than the control
responses to von Frey filaments after topical AITC (mice [4]): does not increase hyper-responsivity to punctate stimuli; also recorded: responded with sensitivities similar to their basal response
action potential firing elicited by mechanical stimuli (rat DRG neurons): reduces neuronal action potential firing elicited by mechanical stimuli
sensitivity of chimera to MA inhibition ([5]; 100 μM overnight, compared with PIEZO2): much more sensitive to MA inhibition
mechanical stimulus needed to open chimera ([5]; MA 100 μM overnight): requires a higher mechanical stimulus to open
effect on mechano-activated currents [6]: decreases mechano-activated currents in rat DRG neurons; also recorded: inhibit all mechanosensitive currents
effect on activity of Piezo2 V14 (Piezo2 V14): inhibited the activity
effect on PIEZO2 currents (mouse PIEZO2 [7]; 1-600 μM overnight): inhibits heterologously-expressed mouse PIEZO2 currents; also recorded: inhibits PIEZO2 currents in a concentration-dependent manner
effect on time constant of inactivation (mouse PIEZO2 [7]; overnight supplementation): without affecting the time constant of inactivation
times more MA needed to inhibit PIEZO2 than PIEZO1 (mouse PIEZO2 [8]): ~ 7 times
